# Literature values in patent publication US20260048005A1, “INJECTABLE THERMOSENSITIVE HYDROGELS FOR A SUSTAINED RELEASE OF IRON NANOCHELATORS” (The General Hospital Corporation, priority 2022, published 2026).
# Conditions: in rodents
smiles,measurement,value
"CC(=O)N(O)CCCCCNC(=O)CCC(=O)N(O)CCCCCNC(=O)CCC(=O)N(O)CCCCCN [DFO, deferoxamine]",half-life,5 to 15 min
